Data from the supplement of paper PMC10307832.

Tests used:
Assay in all cases: relative viability (nuclei count vs DMSO), 5 days (fraction); higher = more cells survive
Decitabine + Olaparib = compound: Nc1ncn([C@H]2C[C@H](O)[C@@H](CO)O2)c(=O)n1 [Decitabine] + O=C(c1cc(Cc2n[nH]c(=O)c3ccccc23)ccc1F)N1CCN(C(=O)C2CC2)CC1 [Olaparib] (partner 8 µM)
Method in brief: (§1)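 Lung cancer cell lines in 1536-well plates got either a single drug or a fixed anchor-drug dose together with five library-drug doses (not always all listed) in √10 steps, by pin tool, on the day after seeding. Nuclei were counted after 5 days, and relative viability is the treated-to-vehicle ratio of nuclei counts. Values are medians of duplicate plates.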

Cediranib + Pictilisib = compound: COc1cc2c(Oc3ccc4[nH]c(C)cc4c3F)ncnc2cc1OCCCN1CCCC1 [Cediranib] + CS(=O)(=O)N1CCN(Cc2cc3nc(-c4cccc5[nH]ncc45)nc(N4CCOCC4)c3s2)CC1 [Pictilisib] (partner 1 µM)
Method in brief: as §1

Cediranib + OSI-027 = compound: COc1cc2c(Oc3ccc4[nH]c(C)cc4c3F)ncnc2cc1OCCCN1CCCC1 [Cediranib] + COc1cccc2cc(-c3nc([C@H]4CC[C@H](C(=O)O)CC4)n4ncnc(N)c34)[nH]c12 [OSI-027] (partner 0.5 µM)
Method in brief: as §1

Decitabine + Alpelisib = compound: Nc1ncn([C@H]2C[C@H](O)[C@@H](CO)O2)c(=O)n1 [Decitabine] + Cc1nc(NC(=O)N2CCC[C@H]2C(N)=O)sc1-c1ccnc(C(C)(C)C(F)(F)F)c1 [Alpelisib] (partner 2 µM)
Method in brief: as §1

LOU-NH91
relative viability (Decitabine + Olaparib; first compound 0.04 µM): 0.667 | relative viability (Decitabine + Olaparib; first compound 0.1265 µM): 0.742 | relative viability (Decitabine + Olaparib; first compound 0.4 µM): 0.649 | relative viability (Decitabine + Olaparib; first compound 1.265 µM): 0.577 | relative viability (Decitabine + Olaparib; first compound 4 µM): 0.601 | relative viability (Cediranib + Pictilisib; first compound 0.04 µM): 0.534 | relative viability (Cediranib + Pictilisib; first compound 0.1265 µM): 0.473 | relative viability (Cediranib + Pictilisib; first compound 0.4 µM): 0.494 | relative viability (Cediranib + Pictilisib; first compound 1.265 µM): 0.479 | relative viability (Cediranib + Pictilisib; first compound 4 µM): 0.495 | relative viability (Cediranib + OSI-027; first compound 0.04 µM): 0.769 | relative viability (Cediranib + OSI-027; first compound 0.1265 µM): 0.862 | relative viability (Cediranib + OSI-027; first compound 0.4 µM): 0.707 | relative viability (Cediranib + OSI-027; first compound 1.265 µM): 0.582 | relative viability (Cediranib + OSI-027; first compound 4 µM): 0.701 | relative viability (Decitabine + Alpelisib; first compound 0.04 µM): 0.484 | relative viability (Decitabine + Alpelisib; first compound 0.1265 µM): 0.673 | relative viability (Decitabine + Alpelisib; first compound 0.4 µM): 0.688 | relative viability (Decitabine + Alpelisib; first compound 1.265 µM): 0.592 | relative viability (Decitabine + Alpelisib; first compound 4 µM): 0.61

LU99A
relative viability (Decitabine + Olaparib; first compound 0.04 µM): 0.247 | relative viability (Decitabine + Olaparib; first compound 0.1265 µM): 0.238 | relative viability (Decitabine + Olaparib; first compound 0.4 µM): 0.217 | relative viability (Decitabine + Olaparib; first compound 1.265 µM): 0.193 | relative viability (Decitabine + Olaparib; first compound 4 µM): 0.187 | relative viability (Cediranib + Pictilisib; first compound 0.04 µM): 0.354 | relative viability (Cediranib + Pictilisib; first compound 0.4 µM): 0.314 | relative viability (Cediranib + Pictilisib; first compound 1.265 µM): 0.276 | relative viability (Cediranib + Pictilisib; first compound 4 µM): 0.36 | relative viability (Cediranib + OSI-027; first compound 0.04 µM): 0.281 | relative viability (Cediranib + OSI-027; first compound 0.1265 µM): 0.314 | relative viability (Cediranib + OSI-027; first compound 0.4 µM): 0.305 | relative viability (Cediranib + OSI-027; first compound 1.265 µM): 0.286 | relative viability (Cediranib + OSI-027; first compound 4 µM): 0.288 | relative viability (Decitabine + Alpelisib; first compound 0.04 µM): 0.466 | relative viability (Decitabine + Alpelisib; first compound 0.1265 µM): 0.7 | relative viability (Decitabine + Alpelisib; first compound 0.4 µM): 0.625 | relative viability (Decitabine + Alpelisib; first compound 1.265 µM): 0.504 | relative viability (Decitabine + Alpelisib; first compound 4 µM): 0.389

LXF-289
relative viability (Decitabine + Olaparib; first compound 0.04 µM): 0.302 | relative viability (Decitabine + Olaparib; first compound 0.1265 µM): 0.255 | relative viability (Decitabine + Olaparib; first compound 0.4 µM): 0.203 | relative viability (Decitabine + Olaparib; first compound 1.265 µM): 0.157 | relative viability (Decitabine + Olaparib; first compound 4 µM): 0.128 | relative viability (Cediranib + Pictilisib; first compound 0.04 µM): 0.815 | relative viability (Cediranib + Pictilisib; first compound 0.1265 µM): 0.783 | relative viability (Cediranib + Pictilisib; first compound 0.4 µM): 0.729 | relative viability (Cediranib + Pictilisib; first compound 1.265 µM): 0.779 | relative viability (Cediranib + Pictilisib; first compound 4 µM): 0.819 | relative viability (Cediranib + OSI-027; first compound 0.04 µM): 0.667 | relative viability (Cediranib + OSI-027; first compound 0.1265 µM): 0.641 | relative viability (Cediranib + OSI-027; first compound 0.4 µM): 0.689 | relative viability (Cediranib + OSI-027; first compound 1.265 µM): 0.77 | relative viability (Cediranib + OSI-027; first compound 4 µM): 0.79 | relative viability (Decitabine + Alpelisib; first compound 0.04 µM): 0.716 | relative viability (Decitabine + Alpelisib; first compound 0.1265 µM): 0.606 | relative viability (Decitabine + Alpelisib; first compound 0.4 µM): 0.478 | relative viability (Decitabine + Alpelisib; first compound 1.265 µM): 0.352 | relative viability (Decitabine + Alpelisib; first compound 4 µM): 0.315

NCI-H522
relative viability (Decitabine + Olaparib; first compound 0.04 µM): 0.544 | relative viability (Decitabine + Olaparib; first compound 0.1265 µM): 0.564 | relative viability (Decitabine + Olaparib; first compound 0.4 µM): 0.544 | relative viability (Decitabine + Olaparib; first compound 1.265 µM): 0.548 | relative viability (Decitabine + Olaparib; first compound 4 µM): 0.47 | relative viability (Cediranib + OSI-027; first compound 0.04 µM): 0.719 | relative viability (Cediranib + OSI-027; first compound 0.1265 µM): 0.77 | relative viability (Cediranib + OSI-027; first compound 0.4 µM): 0.686 | relative viability (Cediranib + OSI-027; first compound 1.265 µM): 0.707 | relative viability (Cediranib + OSI-027; first compound 4 µM): 0.694

NCI-H1299
relative viability (Decitabine + Olaparib; first compound 0.04 µM): 0.963 | relative viability (Decitabine + Olaparib; first compound 0.1265 µM): 0.962 | relative viability (Decitabine + Olaparib; first compound 0.4 µM): 0.884 | relative viability (Decitabine + Olaparib; first compound 1.265 µM): 0.655 | relative viability (Decitabine + Olaparib; first compound 4 µM): 0.578 | relative viability (Cediranib + Pictilisib; first compound 0.04 µM): 0.866 | relative viability (Cediranib + Pictilisib; first compound 0.1265 µM): 0.844 | relative viability (Cediranib + Pictilisib; first compound 0.4 µM): 0.719 | relative viability (Cediranib + Pictilisib; first compound 1.265 µM): 0.853 | relative viability (Cediranib + Pictilisib; first compound 4 µM): 0.748 | relative viability (Decitabine + Alpelisib; first compound 0.04 µM): 1.07 | relative viability (Decitabine + Alpelisib; first compound 0.1265 µM): 1.07 | relative viability (Decitabine + Alpelisib; first compound 0.4 µM): 0.985 | relative viability (Decitabine + Alpelisib; first compound 1.265 µM): 0.904 | relative viability (Decitabine + Alpelisib; first compound 4 µM): 0.899

NCI-H1563
relative viability (Cediranib + Pictilisib; first compound 0.04 µM): 0.727 | relative viability (Cediranib + Pictilisib; first compound 0.1265 µM): 0.576 | relative viability (Cediranib + Pictilisib; first compound 0.4 µM): 0.711 | relative viability (Cediranib + Pictilisib; first compound 1.265 µM): 0.66 | relative viability (Cediranib + Pictilisib; first compound 4 µM): 0.595 | relative viability (Cediranib + OSI-027; first compound 0.04 µM): 0.799 | relative viability (Cediranib + OSI-027; first compound 0.1265 µM): 1.03 | relative viability (Cediranib + OSI-027; first compound 0.4 µM): 0.767 | relative viability (Cediranib + OSI-027; first compound 1.265 µM): 0.744 | relative viability (Cediranib + OSI-027; first compound 4 µM): 0.796 | relative viability (Decitabine + Alpelisib; first compound 0.04 µM): 1.06 | relative viability (Decitabine + Alpelisib; first compound 0.1265 µM): 0.965 | relative viability (Decitabine + Alpelisib; first compound 0.4 µM): 1.02 | relative viability (Decitabine + Alpelisib; first compound 1.265 µM): 0.97 | relative viability (Decitabine + Alpelisib; first compound 4 µM): 0.824

NCI-H1623
relative viability (Cediranib + OSI-027; first compound 0.04 µM): 0.426 | relative viability (Cediranib + OSI-027; first compound 0.1265 µM): 0.442 | relative viability (Cediranib + OSI-027; first compound 0.4 µM): 0.477 | relative viability (Cediranib + OSI-027; first compound 1.265 µM): 0.423 | relative viability (Cediranib + OSI-027; first compound 4 µM): 0.392

NCI-H1648
relative viability (Decitabine + Olaparib; first compound 0.04 µM): 0.679 | relative viability (Decitabine + Olaparib; first compound 0.1265 µM): 0.516 | relative viability (Decitabine + Olaparib; first compound 0.4 µM): 0.484 | relative viability (Decitabine + Olaparib; first compound 1.265 µM): 0.424 | relative viability (Decitabine + Olaparib; first compound 4 µM): 0.301 | relative viability (Cediranib + OSI-027; first compound 0.04 µM): 0.284 | relative viability (Cediranib + OSI-027; first compound 0.4 µM): 0.259 | relative viability (Cediranib + OSI-027; first compound 1.265 µM): 0.272 | relative viability (Cediranib + OSI-027; first compound 4 µM): 0.246

NCI-H1650
relative viability (Decitabine + Olaparib; first compound 0.04 µM): 0.509 | relative viability (Decitabine + Olaparib; first compound 0.1265 µM): 0.367 | relative viability (Decitabine + Olaparib; first compound 0.4 µM): 0.259 | relative viability (Decitabine + Olaparib; first compound 1.265 µM): 0.2 | relative viability (Decitabine + Olaparib; first compound 4 µM): 0.207 | relative viability (Cediranib + Pictilisib; first compound 0.04 µM): 0.61 | relative viability (Cediranib + Pictilisib; first compound 0.1265 µM): 0.234 | relative viability (Cediranib + Pictilisib; first compound 0.4 µM): 0.494 | relative viability (Cediranib + Pictilisib; first compound 1.265 µM): 0.468 | relative viability (Cediranib + Pictilisib; first compound 4 µM): 0.383 | relative viability (Cediranib + OSI-027; first compound 0.04 µM): 0.781 | relative viability (Cediranib + OSI-027; first compound 0.1265 µM): 0.596 | relative viability (Cediranib + OSI-027; first compound 0.4 µM): 0.589 | relative viability (Cediranib + OSI-027; first compound 1.265 µM): 0.577 | relative viability (Cediranib + OSI-027; first compound 4 µM): 0.436

NCI-H1703
relative viability (Decitabine + Olaparib; first compound 0.04 µM): 0.21 | relative viability (Decitabine + Olaparib; first compound 0.1265 µM): 0.21 | relative viability (Decitabine + Olaparib; first compound 0.4 µM): 0.287 | relative viability (Decitabine + Olaparib; first compound 1.265 µM): 0.145 | relative viability (Decitabine + Olaparib; first compound 4 µM): 0.166 | relative viability (Cediranib + Pictilisib; first compound 0.04 µM): 0.226 | relative viability (Cediranib + Pictilisib; first compound 0.1265 µM): 0.209 | relative viability (Cediranib + Pictilisib; first compound 0.4 µM): 0.209 | relative viability (Cediranib + Pictilisib; first compound 1.265 µM): 0.194 | relative viability (Cediranib + Pictilisib; first compound 4 µM): 0.221 | relative viability (Decitabine + Alpelisib; first compound 0.04 µM): 0.248 | relative viability (Decitabine + Alpelisib; first compound 0.1265 µM): 0.27 | relative viability (Decitabine + Alpelisib; first compound 0.4 µM): 0.259 | relative viability (Decitabine + Alpelisib; first compound 1.265 µM): 0.246 | relative viability (Decitabine + Alpelisib; first compound 4 µM): 0.195

NCI-H2342
relative viability (Decitabine + Olaparib; first compound 0.04 µM): 0.539 | relative viability (Decitabine + Olaparib; first compound 0.1265 µM): 0.368 | relative viability (Decitabine + Olaparib; first compound 0.4 µM): 0.433 | relative viability (Decitabine + Olaparib; first compound 1.265 µM): 0.351 | relative viability (Decitabine + Olaparib; first compound 4 µM): 0.249 | relative viability (Cediranib + OSI-027; first compound 0.04 µM): 0.615 | relative viability (Cediranib + OSI-027; first compound 0.1265 µM): 0.671 | relative viability (Cediranib + OSI-027; first compound 0.4 µM): 0.659 | relative viability (Cediranib + OSI-027; first compound 1.265 µM): 0.549 | relative viability (Cediranib + OSI-027; first compound 4 µM): 0.508

SW 900
relative viability (Decitabine + Olaparib; first compound 0.04 µM): 0.563 | relative viability (Decitabine + Olaparib; first compound 0.1265 µM): 0.365 | relative viability (Decitabine + Olaparib; first compound 0.4 µM): 0.329 | relative viability (Decitabine + Olaparib; first compound 1.265 µM): 0.228 | relative viability (Decitabine + Olaparib; first compound 4 µM): 0.208 | relative viability (Cediranib + OSI-027; first compound 0.04 µM): 0.712 | relative viability (Cediranib + OSI-027; first compound 0.1265 µM): 0.642 | relative viability (Cediranib + OSI-027; first compound 0.4 µM): 0.504 | relative viability (Cediranib + OSI-027; first compound 1.265 µM): 0.59 | relative viability (Cediranib + OSI-027; first compound 4 µM): 0.69
